Data set [1] can be described thus: Propylene polymerization (PP) in small-scale autoclave reactors: yield, quench time, catalyst activity. An excerpt:
Solutions of the pre-catalysts were made using toluene (ExxonMobil Chemical—anhydrous, stored under N2) (98%) or isohexane (ExxonMobil Chemical—polymerization grade, and purified as described below). Pre-catalyst solutions were typically 0.25 mmol/L.
Solvents, polymerization grade toluene and/or isohexanes were supplied by ExxonMobil Chemical Co. and are purified by passing through a series of columns: two 500 cc Oxyclear cylinders in series from Labclear (Oakland, Calif), followed by two 500 cc columns in series packed with dried […] (8-12 mesh; Aldrich Chemical Company), and two 500 cc columns in series packed with dried 5 Å mole sieves (8-12 mesh; Aldrich Chemical Company).
Polymerization grade propylene (C3) was used and further purified by passing it through a series of columns: 2250 cc Oxiclear cylinder from Labclear followed by a 2250 cc column packed with 3 Å mole sieves (8-12 mesh; Aldrich Chemical Company), then two 500 cc columns in series packed with 5 Å mole sieves (8-12 mesh; Aldrich Chemical Company), then a 500 cc column packed with Selexsorb CD (BASF), and finally a 500 cc column packed with Selexsorb COS (BASF).
Activation of the pre-catalysts was either by dimethylanilinium tetrakisperfluorophenylborate (Boulder Scientific or Albemarle Corp; Act ID=A) or is (hydrogenated tallow alkyl)methylammonium tetrakis(pentafluorophenyl)borate supplied as a 10 wt % solution in methylcyclohexane (Boulder Scientific; Act ID=B). Activators were typically used as a 0.25 mmol/L solution in toluene or isohexane.
Tri-n-octylaluminum (TnOAl or TNOA, Neat, AkzoNobel) was also used as a scavenger prior to introduction of the activator and pre-catalyst into the reactor. TNOA was typically used as a 5 mmol/L solution in toluene or isohexane.
Polymerizations were conducted in an inert atmosphere (N2) drybox using autoclaves equipped with an external heater for temperature control, glass inserts (internal volume of reactor=23.5 mL for C2 and C2/C8; 22.5 mL for C3 runs), septum inlets, regulated supply of nitrogen, ethylene and propylene, and equipped with disposable PEEK mechanical stirrers (800 RPM). The autoclaves were prepared by purging with dry nitrogen at 110° C. or 115° C. for 5 hours and then at 25° C. for 5 hours.
The reactor was prepared as described above, then heated to 40° C., and then purged with propylene gas at atmospheric pressure. Toluene or isohexanes, liquid propylene (1.0 mL) and scavenger (TNOA, 0.5 μmol) were added via syringe. The reactor was then brought to process temperature (70° C. or 100° C.) while stirring at 800 RPM. The activator solution, followed by the pre-catalyst solution, were injected via syringe to the reactor at process conditions. Reactor temperature was monitored and typically maintained within +/−1° C. Polymerizations were halted by addition of approximately 50 psi compressed dry air gas mixture to the autoclaves for approximately 30 seconds. The polymerizations were quenched based on a predetermined pressure loss (maximum quench value) or for a maximum of 30 minutes. The reactors were cooled and vented. The polymers were isolated after the solvent was removed in-vacuo. The actual quench time (s) is reported as quench time (s). Yields reported include total weight of polymer and residual catalyst. Catalyst activity is reported as grams of polymer per mmol transition metal compound per hour of reaction time (g/mmol·hr).
Polymerization results are collected in Tables 2 below. “Ex #” stands for example number. Example numbers starting with a “C” are comparative examples. “Cat ID” identifies the pre-catalyst used in the experiment. Corresponding numbers identifying the pre-catalyst (also referred to as pre-catalyst, catalyst, complex or compound) are located in the synthetic experimental section. T(° C.) is the polymerization temperature which was typically maintained within +/−1° C. “Yield” is polymer yield, and is not corrected for catalyst residue. […]

Data set [2] in a line: Rapid GPC of polymers (Mn, Mw, Mz, PDI). In kind it is physicochemical. Also on record: Mn / Mw / Mz: unit not given here. The procedure:
For analytical testing, polymer sample solutions were prepared by dissolving polymer in 1,2,4-trichlorobenzene (TCB, 99+% purity from Sigma-Aldrich) containing 2,6-di-tert-butyl-4-methylphenol (BHT, 99% from Aldrich) at 165° C. in a shaker oven for approximately 3 hours. The typical concentration of polymer in solution was between 0.1 to 0.9 mg/mL with a BHT concentration of 1.25 mg BHT/mL of TCB. Samples were cooled to 135° C. for testing.
High temperature size exclusion chromatography was performed using an automated “Rapid GPC” system as described in U.S. Pat. Nos. 6,491,816; 6,491,823; 6,475,391; 6,461,515; 6,436,292; 6,406,632; 6,175,409; 6,454,947; 6,260,407; and 6,294,388; each of which is incorporated herein by reference. Molecular weights (weight average molecular weight (Mw), number average molecular weight (Mn) and z average molecular weight (Mz)) and molecular weight distribution (MWD=Mw/Mn), which is also sometimes referred to as the polydispersity (PDI) of the polymer, were measured by Gel Permeation Chromatography using a Symyx Technology GPC equipped with evaporative light scattering detector (ELSD) and calibrated using polystyrene standards (Polymer Laboratories: Polystyrene Calibration Kit S-M-10: Mp (peak Mw) between 5,000 and 3,390,000). Alternatively, samples were measured by Gel Permeation Chromatography using a Symyx Technology GPC equipped with dual wavelength infrared detector and calibrated using polystyrene standards (Polymer Laboratories: Polystyrene Calibration Kit S-M-10: Mp (peak Mw) between 580 and 3,039,000). […] No column spreading corrections were employed. Numerical analyses were performed using Epoch® software available from Symyx Technologies or Automation Studio software available from Freeslate. The molecular weights obtained are relative to linear polystyrene standards. Molecular weight data is reported in Table 2 under the headings Mn, Mw, Mz and PDI as defined above.

Data set [3] can be described thus: DSC melting point of polymers (TA-Q100). It is filed as physicochemical. The procedure: Differential Scanning Calorimetry (DSC) measurements were performed on a TA-Q100 instrument to determine the melting point of the polymers. Samples were pre-annealed at 220° C. for 15 minutes and then allowed to cool to room temperature overnight. The samples were then heated to 220° C. at a rate of 100° C./minute and then cooled at a rate of 50° C./minute. Melting points were collected during the heating period. The results are reported in the Table 2 under the heading, Tm (° C.).

Where [4] appears, read: polypropylene made with activator A at 70° C.
Where [5] appears, read: polypropylene made with activator A at 100° C.
[6] abbreviates: polypropylene made with activator B at 70° C.
[7] abbreviates: polypropylene made with activator B at 100° C.
Where [8] appears, read: polymer made with activator A, T 70 ° C.
Where [9] appears, read: polymer made with activator A, T 100 ° C.
Setting [10] is: polymer made with activator B, T 70 ° C.
The mark [11] stands for this setting: polymer made with activator B, T 100 ° C.

Experimental findings from patent US20250277066A1, “Substituted Pyridine-2,6-Bis(Phenylenephenolate) Complexes with Enhanced Solubility that are Useful as Catalyst Components for Olefin Polymerization” (ExxonMobil Chemical Patents Inc., priority 2022, published 2025) are described below.

Molecules are shown by their SMILES. Several values for one entry are separate records, joined by “and”; a condition that tells them apart may be missing. Equal values may be shown once.

Regarding `CC(C)(C)c1cc2c(c(C34CC5CC(CC(C5)C3)C4)c1)[O][Zr-]1([CH3])([CH3])[O]c3c(cc(C(C)(C)C)cc3C34CC5CC(CC(C5)C3)C4)-c3ccccc3-c3cccc([n+]31)-c1ccccc1-2` [Complex 2], the Activity was 2,069,268 g P/mmol cat • hr and 4,201,200 g P/mmol cat • hr and 3,074,182 g P/mmol cat • hr in data set [1] (activator B, T 70° C.); 2,345,000 g P/mmol cat • hr and 2,682,545 g P/mmol cat • hr and 2,225,032 g P/mmol cat • hr in data set [1] (activator B, T 100° C.). Further, the Mn in data set [2] (setting [4]) is 51,771 and 73,251 and 79,137; in data set [2] (setting [6]), 142,243 and 146,842 and 153,727; in data set [2] (setting [7]), 63,491 and 54,833 and 47,288. The Mw in data set [2] (setting [4]) was 409,655 and 422,884 and 427,915; in data set [2] (setting [5]), 157,755 and 118,735 and 149,968; in data set [2] (setting [6]) it was 528,329 and 583,343 and 515,347; in data set [2] (setting [7]), 180,083 and 161,679 and 169,722. For the same compound, the Mz in data set [2] (setting [4]) was 1,643,708 and 1,794,768 and 1,704,507; in data set [2] (setting [5]) it was 608,816 and 547,511 and 649,731; in data set [2] (setting [6]), 1,786,121 and 2,112,818 and 1,774,716; in data set [2] (setting [7]), 621,548 and 531,840 and 733,298. Besides, the PDI in data set [2] (polypropylene made with activator A at 70° C., Mw/Mn) is 7.91 and 5.77 and 5.41; in data set [2] (polypropylene made with activator A at 100° C., Mw/Mn), 3.82 and 5.79 and 4.78; in data set [2] (polypropylene made with activator B at 70° C., Mw/Mn) it was 3.71 and 3.97 and 3.35; in data set [2] (polypropylene made with activator B at 100° C., Mw/Mn), 2.84 and 2.95 and 3.59. Moreover, the Tm in data set [3] (setting [4]) was 147.1 °C and 148.3 °C; in data set [3] (setting [5]), 147.6 °C and 145.6 °C and 146.6 °C; in data set [3] (setting [6]), 148.8 °C and 149.3 °C and 148.6 °C; in data set [3] (setting [7]), 148.0 °C and 147.3 °C.

As for `Cc1cc2[n+]3c(c1)-c1ccccc1-c1cc(C(C)(C)C)cc(C45CC6CC(CC(C6)C4)C5)c1[O][Zr-]3([CH3])([CH3])[O]c1c(cc(C(C)(C)C)cc1C13CC4CC(CC(C4)C1)C3)-c1ccccc1-2` [Complex 3], the Activity was 1,623,360 g P/mmol cat • hr and 2,345,333 g P/mmol cat • hr in data set [1] (activator A, T 70° C.); 1,030,400 g P/mmol cat • hr and 1,074,880 g P/mmol cat • hr and 1,034,182 g P/mmol cat • hr in data set [1] (activator B, T 70° C.); 844,235 g P/mmol cat • hr and 476,276 g P/mmol cat • hr and 766,154 g P/mmol cat • hr in data set [1] (activator B, T 100° C.). The Mn in data set [2] (setting [8]) is 151,894 and 189,341; in data set [2] (setting [9]), 97,418 and 70,184 and 116,079; in data set [2] (setting [10]), 251,087 and 247,428 and 294,324; in data set [2] (setting [11]), 136,672 and 115,932 and 136,724. For the same compound, the Mw in data set [2] (setting [8]) is 555,461 and 618,660; in data set [2] (setting [9]) it was 211,821 and 182,436 and 245,630; in data set [2] (setting [10]) it was 611,739 and 605,320 and 723,438; in data set [2] (setting [11]), 263,279 and 217,696 and 285,817. Besides, the Mz was 2,204,591 and 1,998,977 in data set [2] (setting [8]); 590,904 and 640,309 and 691,819 in data set [2] (setting [9]); 1,641,465 and 1,654,930 and 2,228,894 in data set [2] (setting [10]); 693,703 and 504,146 and 859,182 in data set [2] (setting [11]). Moreover, the PDI in data set [2] (setting [8]) was 3.66 and 3.27; in data set [2] (setting [9]), 2.17 and 2.60 and 2.12; in data set [2] (setting [10]), 2.44 and 2.45 and 2.46; in data set [2] (setting [11]), 1.93 and 1.88 and 2.09. In addition, the Tm in data set [3] (setting [8]) is 150.4 °C and 150.9 °C; in data set [3] (setting [9]) it was 149.4 °C and 148.1 °C and 150.1 °C; in data set [3] (setting [10]) it was 150.5 °C and 150.9 °C; in data set [3] (setting [11]), 148.9 °C and 149.8 °C.
